According to US7807383B2, “Diagnosing and treating hormone resistant cancers” (Board of Regents, The University of Texas System, priority 2007, dated 2010):

Molecular target: T1, DBC-1/ERα interaction (Homo sapiens, UniProt P03372)
T1 sequence (P03372 1-595): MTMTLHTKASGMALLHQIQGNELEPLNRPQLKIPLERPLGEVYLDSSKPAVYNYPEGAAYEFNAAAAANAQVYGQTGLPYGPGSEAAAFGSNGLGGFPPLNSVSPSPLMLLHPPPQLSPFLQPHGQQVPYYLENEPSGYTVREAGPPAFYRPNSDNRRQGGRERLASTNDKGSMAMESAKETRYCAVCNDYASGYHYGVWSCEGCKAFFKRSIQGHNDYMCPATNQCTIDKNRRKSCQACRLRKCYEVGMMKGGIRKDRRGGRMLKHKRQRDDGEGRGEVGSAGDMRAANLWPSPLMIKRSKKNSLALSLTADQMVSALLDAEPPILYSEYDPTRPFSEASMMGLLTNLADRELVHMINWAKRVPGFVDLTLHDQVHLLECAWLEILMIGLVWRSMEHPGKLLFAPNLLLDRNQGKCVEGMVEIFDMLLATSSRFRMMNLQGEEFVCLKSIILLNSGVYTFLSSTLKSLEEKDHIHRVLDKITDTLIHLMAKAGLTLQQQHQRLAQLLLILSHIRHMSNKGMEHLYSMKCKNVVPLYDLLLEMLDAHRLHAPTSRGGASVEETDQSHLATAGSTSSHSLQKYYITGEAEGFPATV
Details: MCF-7 and BG-1 cells, hormone-free medium; E2 10^−7 M, 4-OHT 10^−6 M, ICI 10^−7 M; one hour
Source text: Results are representative of at least three independent experiments.

Compound: C[C@]12CC[C@@H]3c4ccc(O)cc4C[C@@H](CCCCCCCCC[S+]([O-])CCCC(F)(F)C(F)(F)F)[C@H]3[C@@H]1CC[C@@H]2O (stereo partly shown) [ICI 182,780]
- effect on DBC-1/ERα interaction (co-immunoprecipitation): disrupted the DBC-1/ERα interaction
